Reference: patent publication US7887794B2, “Lactic acid bacteria and their use in the treatment of cancer” (Bio-K Plus International, Inc., priority 2001, dated 2011)

Experiments:
LS 513 cells = assay: apoptosis / cell cycle by flow cytometry with propidium iodide; type: cell-based, human; settings: in the presence of intact (live or irradiated) bacteria; dose dependent
Description: A concentration of 5×10^4 cells per mL, with 6 mL per well, is used in order to obtain 3×10^5 cells per sample. The cells are prepared as indicated above. The different products are added to the wells, and an incubation of 48 hours is done. Following the incubation, the supernatants of the cells are collected in different 15 mL tubes and centrifuged at 1500 RPM during 5 minutes. The cellular pellets are then collected by decantation of the supernatant and put on ice. This stage consists in recuperating the cells in suspension. Afterwards, the adherent cellular sheet is washed with 0.5 mL trypsin-EDTA, then 0.2 mL trypsin-EDTA is added to each well to allow the cells to detach when they are incubated for around 8 minutes in the incubator at 37° C. The cells are suspended in 3 mL of complete RPMI 10% FCS to stop the enzymatic activity of trypsin. […] Different peaks are formed due to the differences in fluorescence existing between each phase of the cellular cycle. The more the content of intact DNA is high, the more the fluorescence is high and vice-versa. The program measures the percentage of fluorescence that the large spike forms under the corresponding spike of G0-G1, this spike represents pieces of fragmented DNA, consequence of the cleavage of DNA by different enzymes activated during apoptosis.

colon cancer cells = assay: addition of butyrate, apoptosis of colon cancer cells in vitro; type: cell-based, human
Description: The plate of cancer cells containing 3×10^5 cells per well is incubated overnight to allow the cells to adhere. Then, the different concentrations of butyric acid (Sigma, St-Louis, USA) are added to the wells containing the adherent cells and the culture medium, the complete RPMI. After this addition, a 48 hour incubation is done in order to measure the percentage of apoptosis according to the technique described hereinafter.
A dose of 5FU (100 μg/mL) as well as different doses (2 mM and 4 mM) of butyric acid (ba) are added to the cancerous colon cells. Apoptosis is measures after a 48 hour incubation.

human colon cancer = settings: mice; cited from earlier work

SMILES | efficacy of the anticancer agent (LS 513 cells) | apoptosis in colon cancer cells in vitro (colon cancer cells) | in vivo growth of human colon cancer (human colon cancer)
O=c1[nH]cc(F)c(=O)[nH]1 [5FU, 5-fluorouracil] | considerably increased | – | –
CCCC(=O)O [butyric acid] | – | causes apoptosis | inhibits the in vivo growth
